Results reported in US10301317B2, “Inhibitors of ERK and methods of use” (Kura Oncology, Inc., priority 2013, dated 2019).

tested on: phospho-p90 RSK (RSK1 Thr359/Ser363) in A375 (Braf V600E) cells; assay: Phospho-p90 RSK ELISA using A375 (Braf V600E) cells; type: cell-based; details: Homo sapiens, A-375, 2 hours compound treatment, read-out: Cellular Phospho-p90RSK IC50
Experimental: In preparation for the assay, an ELISA plate with the pre-coated goat anti-mouse antibody (Thermo Scientific) was treated with a mouse anti-human RSK1 antibody (monoclonal, Invitrogen) at 1:800 dilution (150 ng/well) in PBS, and the plate was placed on a plate shaker at 4° C. overnight. […] After two […] of the compound treatment, the supernatant was removed from the cell plate, and cells were lysed in 100 μl per well of cell lysis buffer (Cell Signaling Technologies) containing phosphatase and protease inhibitors (Cell Signaling Technologies) on a plate shaker at 4° C. for 20 minutes. The ELISA plate was washed four times with ELISA wash buffer (Thermo Scientific) prior to addition of 100 μL cell lysate. The lysate was incubated on the ELISA plate with gentle shaking at room temperature for 2 hours. The contents of the wells were removed, and the ELISA plate was washed four times with wash buffer, and incubated with 100 μL per well of anti-phospho-RSK1 (Thr359/Ser363) rabbit monoclonal antibody (Millipore) at dilution of 1:1000 in StartingBlock buffer (Thermo Scientific) on a plate shaker at room temperature for 1 hour. The contents of the wells were removed, the ELISA plate was washed four times with wash buffer, and was incubated with 100 μL per well of goat anti-rabbit HRP (Thermo Scientific) at dilution of 1:3000 in StartingBlock buffer (Thermo Scientific) on a plate shaker at room temperature for 1 hour. The contents of the wells were removed, the ELISA plate was washed four times with wash buffer, and then incubated with 100 μL per well of TMB substrate solution (Thermo Scientific) on a plate shaker at room temperature for 20 minutes. Finally, 100 μL of TMB stop solution (Thermo Scientific) was added to each well and the absorbance is measured at 450 nm on a Tecan plate reader.

SMILES | IC50
Cc1cc(-c2n[nH]c3cc4c(cc23)CN([C@@H]2CCCN(CC(=O)C(C)(C)C)C2)C(=O)N4)ccn1 [Example 203] | 250 to 1000 nM
COc1ncc(-c2n[nH]c3cc4c(cc23)CN([C@H](C)c2cccc(C#N)c2)C(=O)N4)cn1 [Example 100] | 250 to 1000 nM
O=C1Nc2cc3[nH]nc(N4CCOCC4)c3cc2CN1Cc1cccc(Cl)c1 [Example 78] | ≤ 250 nM
COc1ncccc1CN1CCC[C@@H](N2Cc3cc4c(-c5ccnc(C)c5)n[nH]c4cc3NC2=O)C1 [Example 150] | ≤ 250 nM
Cc1cc(-c2n[nH]c3cc4c(cc23)CN([C@H](C)CO)C(=O)N4)ccn1 [Example 54] | > 1000 nM
Cc1cc(-c2n[nH]c3cc4c(cc23)CN([C@@H]2CCCN(CCC(C)C)C2)C(=O)N4)ccn1 [Example 169] | 250 to 1000 nM
COc1ncc(-c2n[nH]c3cc4c(cc23)CN([C@@H]2CCN(CC(F)(F)F)C2)C(=O)N4)cn1 [Example 276] | ≤ 250 nM
Cc1cc(-c2n[nH]c3cc4c(cc23)CN([C@@H]2CCCN(c3cccc(C)n3)C2)C(=O)N4)ccn1 [Example 238] | ≤ 250 nM
Cc1cc(-c2n[nH]c3cc4[nH]c(=O)c(C5CCCN(Cc6ccccc6)C5)cc4cc23)cc(C)n1 (centres unmarked) [Example 360] | 250 to 1000 nM
Cc1cc(-c2n[nH]c3cc4c(cc23)CN([C@@H]2CCCN(CC(O)C(C)(C)C)C2)C(=O)N4)ccn1 (some centres unmarked) [Example 236] | > 1000 nM
Cc1cc(-c2n[nH]c3cc4c(cc23)CN([C@@H]2CCCN(Cc3ccccn3)C2)C(=O)N4)ccn1 [Example 171] | > 1000 nM
Cc1cc(-c2n[nH]c3cc4c(cc23)CN([C@@H]2CCC[C@@H](NCc3ccccc3)C2)C(=O)N4)ccn1 [Example 313] | 250 to 1000 nM
Cc1cc(-c2n[nH]c3cc4c(cc23)CN([C@@H]2CCCN(Cc3cncnc3)C2)C(=O)N4)ccn1 [Example 166] | > 1000 nM
Cc1cc(-c2n[nH]c3cc4c(cc23)CN(C2CN(CCc3ccccc3)C2)C(=O)N4)ccn1 [Example 192] | 250 to 1000 nM
Cc1cc(-c2n[nH]c3cc4c(cc23)CN([C@@H]2CCCN(C3CCCC3)C2)C(=O)N4)ccn1 [Example 215] | 250 to 1000 nM
Cc1cc(-c2n[nH]c3cc4c(cc23)CN([C@@H]2CCCN(CC3(C)CC3)C2)C(=O)N4)ccn1 [Example 182] | 250 to 1000 nM
Cc1cc(-c2n[nH]c3cc4c(cc23)CN([C@@H]2CCCN(Cc3sc(C)nc3C)C2)C(=O)N4)ccn1 [Example 195] | 250 to 1000 nM

Results, then the compound that gave them:

IC50 | SMILES
> 1000 nM | Cc1cc(-c2n[nH]c3cc4c(cc23)CN(CCNCc2ccc(F)c(Cl)c2)C(=O)N4)ccn1 [Example 173]
≤ 250 nM | Cc1ccc(-c2n[nH]c3cc4c(cc23)CN(Cc2cccc(Cl)c2)C(=O)N4)cn1 [Example 58]
250 to 1000 nM | O=C1Nc2cc3[nH]nc(-c4cn[nH]c4)c3cc2CN1Cc1ccc(F)c(Cl)c1 [Example 48]
> 1000 nM | Cc1ccc(CN2CCC[C@@H](N3Cc4cc5c(-c6ccnc(C)c6)n[nH]c5cc4NC3=O)C2)cn1 [Example 131]
250 to 1000 nM | COc1ncc(-c2n[nH]c3cc4c(cc23)CN(Cc2cccc(C#N)c2)C(=O)N4)cn1 [Example 125]
> 1000 nM | Cc1cc(-c2n[nH]c3cc4c(cc23)CN(CC2CCCN(Cc3ccccc3)C2)C(=O)N4)ccn1 (centres unmarked) [Example 208]
> 1000 nM | O=C1Nc2cc3[nH]nc(-c4cn[nH]c4)c3cc2CN1Cc1cccc(Cl)c1 [Example 60]
250 to 1000 nM | O=C1Nc2cc3[nH]nc(-c4ccnnc4)c3cc2CN1Cc1ccc(F)cc1 [Example 97]
≤ 250 nM | Cc1cc(-c2n[nH]c3cc4c(cc23)CN(Cc2ccccc2)C(=O)N4)ccn1 [Example 372]
≤ 250 nM | COc1ncc(-c2n[nH]c3cc4c(cc23)CN(CCc2cccc(Cl)c2)C(=O)N4)cn1 [Example 86]
> 1000 nM | Cc1cc(-c2n[nH]c3cc4c(cc23)CN([C@@H]2CCCN(CCc3ccc(F)cc3)C2)C(=O)N4)ccn1 [Example 167]
≤ 250 nM | COc1ncc(-c2n[nH]c3cc4c(cc23)CN(Cc2ccc(F)cc2)C(=O)N4)cn1 [Example 72]
